Here are results for 34 compounds from patent US20190284136A1, “INDOLINE DERIVATIVES” (ViiV HEALTHCARE UK LIMITED, priority 2016, published 2019).

pIC50: −log10 of the molar value.

This assay relates to HIV. Nature of the assay: Table 1 IC50 of the examples (assay method not given; patent concerns inhibiting HIV replication). The format is cell-based. As to conditions: Human immunodeficiency virus 1.
The pIC50 is −log10 of the IC50, conventionally taken in molar units. The low end stands for a large IC50, the high end for a small IC50. Compound `Cc1ccc(-c2c3c(cc(C)c2C(OC(C)(C)C)C(=O)O)N(C(=O)N2CCCCC2)CC3)cc1` (stereo not shown) [Example 6, 2-(tert-Butoxy)-2-(6-methyl-1-(piperidine-1-carbonyl)-4-(p-tolyl)indolin-5-yl)acetic acid] had a negative-log IC50 (pIC50) of 6.43.

In the case of `Cc1ccc(-c2c3c(cc(C)c2C(OC(C)(C)C)C(=O)O)N(C(=O)Nc2ccc(F)cc2)CC3)cc1` (stereo not shown) [Example 7, 2-(tert-Butoxy)-2-(1-((4-fluorophenyl)carbamoyl)-6-methyl-4-(p-tolyl)indolin-5-yl)acetic acid], the pIC50 is 5.52.

The compound `Cc1ccc(-c2c3c(cc(C)c2C(OC(C)(C)C)C(=O)O)N(C(=O)C2CCCCC2)CC3)cc1` (stereo not shown) [Example 8, 2-(tert-Butoxy)-2-(1-(cyclohexanecarbonyl)-6-methyl-4-(p-tolyl)indolin-5-yl)acetic acid] had a pIC50 of 7.82.

For `Cc1ccc(-c2c3c(cc(C)c2[C@H](OC(C)(C)C)C(=O)O)N(C(=O)c2ccc(C)cc2C)CC3)cc1` [Example 9, (S)-2-(tert-Butoxy)-2-(1-(2,4-dimethylbenzoyl)-6-methyl-4-(p-tolyl)indolin-5-yl)acetic acid], the pIC50 was 7.96.

With `COc1ccc(C(=O)N2CCc3c2cc(C)c([C@H](OC(C)(C)C)C(=O)O)c3-c2ccc(C)cc2)c(C)c1` [Example 10, (S)-2-(tert-Butoxy)-2-(1-(4-methoxy-2-methylbenzoyl)-6-methyl-4-(p-tolyl)indolin-5-yl)acetic acid], the negative logarithm of the IC50 (pIC50) was 7.92.

In turn, `COc1ccc(C(=O)N2CCc3c2cc(C)c([C@H](OC(C)(C)C)C(=O)O)c3-c2ccc(C)cc2)cc1F` [Example 11, (S)-2-(tert-Butoxy)-2-(1-(3-fluoro-4-methoxybenzoyl)-6-methyl-4-(p-tolyl)indolin-5-yl)acetic acid] showed a pIC50 of 8.40.

For `COc1cc(C(=O)N2CCc3c2cc(C)c([C@H](OC(C)(C)C)C(=O)O)c3-c2ccc(C)cc2)cc(F)c1F` [Example 12, (S)-2-(tert-Butoxy)-2-(1-(3,4-difluoro-5-methoxybenzoyl)-6-methyl-4-(p-tolyl)indolin-5-yl)acetic acid], the pIC50 was 8.40.

As to `COc1ccc(C(=O)N2CCc3c2cc(C)c([C@H](OC(C)(C)C)C(=O)O)c3-c2ccc(C)cc2)cc1` [Example 13, (S)-2-(tert-Butoxy)-2-(1-(4-methoxybenzoyl)-6-methyl-4-(p-tolyl)indolin-5-yl)acetic acid], the negative-log IC50 (pIC50) was 7.96.

For the compound `Cc1ccc(-c2c3c(cc(C)c2[C@H](OC(C)(C)C)C(=O)O)N(C(=O)c2ccc(F)cc2)CC3)cc1` [Example 14, (S)-2-(tert-Butoxy)-2-(1-(4-fluorobenzoyl)-6-methyl-4-(p-tolyl)indolin-5-yl)acetic acid], the pIC50 is 8.15.

`COc1c(F)ccc(F)c1C(=O)N1CCc2c1cc(C)c([C@H](OC(C)(C)C)C(=O)O)c2-c1ccc(C)cc1` [Example 15, (S)-2-(tert-Butoxy)-2-(1-(3,6-difluoro-2-methoxybenzoyl)-6-methyl-4-(p-tolyl)indolin-5-yl)acetic acid] had a pIC50 of 6.93.

For the compound `COc1cccc(C(=O)N2CCc3c2cc(C)c([C@H](OC(C)(C)C)C(=O)O)c3-c2ccc(C)cc2)c1` [Example 16, (S)-2-(tert-Butoxy)-2-(1-(3-methoxybenzoyl)-6-methyl-4-(p-tolyl)indolin-5-yl)acetic acid], the pIC50 is 7.92.

For `COc1ccccc1C(=O)N1CCc2c1cc(C)c([C@H](OC(C)(C)C)C(=O)O)c2-c1ccc(C)cc1` [Example 17, (S)-2-(tert-Butoxy)-2-(1-(2-methoxybenzoyl)-6-methyl-4-(p-tolyl)indolin-5-yl)acetic acid], the pIC50 is 7.96.

For `Cc1ccc(-c2c3c(cc(C)c2[C@H](OC(C)(C)C)C(=O)O)N(C(=O)c2ccccc2F)CC3)cc1` [Example 18, (S)-2-(tert-Butoxy)-2-(1-(2-fluorobenzoyl)-6-methyl-4-(p-tolyl)indolin-5-yl)acetic acid], the negative-log IC50 (pIC50) was 7.96.

`Cc1ccc(-c2c3c(cc(C)c2[C@H](OC(C)(C)C)C(=O)O)N(C(=O)c2ccc(F)cc2Cl)CC3)cc1` [Example 19, (S)-2-(tert-Butoxy)-2-(1-(2-chloro-4-fluorobenzoyl)-6-methyl-4-(p-tolyl)indolin-5-yl)acetic acid] had a pIC50 of 8.30.

Consider `COc1cccc(C(=O)N2CCc3c2cc(C)c([C@H](OC(C)(C)C)C(=O)O)c3-c2ccc(C)cc2)c1F` [Example 20, (S)-2-(tert-Butoxy)-2-(1-(2-fluoro-3-methoxybenzoyl)-6-methyl-4-(p-tolyl)indolin-5-yl)acetic acid], for which the pIC50 was 7.18.

Compound `COc1cc(F)ccc1C(=O)N1CCc2c1cc(C)c([C@H](OC(C)(C)C)C(=O)O)c2-c1ccc(C)cc1` [Example 21, (S)-2-(tert-Butoxy)-2-(1-(4-fluoro-2-methoxybenzoyl)-6-methyl-4-(p-tolyl)indolin-5-yl)acetic acid] showed a pIC50 of 8.05.

The compound `Cc1ccc(-c2c3c(cc(C)c2[C@H](OC(C)(C)C)C(=O)O)N(C(=O)c2ccc(Cl)cc2)CC3)cc1` [Example 22, (S)-2-(tert-Butoxy)-2-(1-(4-chlorobenzoyl)-6-methyl-4-(p-tolyl)indolin-5-yl)acetic acid] gave a pIC50 of 7.96.

`Cc1ccc(-c2c3c(cc(C)c2[C@H](OC(C)(C)C)C(=O)O)N(C(=O)OC(C)(C)C)CC3)cc1` [Example 24, (S)-2-(tert-Butoxy)-2-(1-(tert-butoxycarbonyl)-6-methyl-4-(p-tolyl)indolin-5-yl)acetic acid] had a pIC50 of 7.33.

Take `Cc1ccc(-c2c3c(cc(C)c2[C@H](OC(C)(C)C)C(=O)O)N(C(=O)CC2CCCCC2)CC3)cc1` [Example 25, (S)-2-(tert-Butoxy)-2-(1-(2-cyclohexylacetyl)-6-methyl-4-(p-tolyl)indolin-5-yl)acetic acid]: the pIC50 is 7.37.

The compound `Cc1ccc(-c2c3c(cc(C)c2[C@H](OC(C)(C)C)C(=O)O)N(C(=O)c2nc(C)sc2C)CC3)cc1` [Example 26, (S)-2-(tert-Butoxy)-2-(1-(2,5-dimethylthiazole-4-carbonyl)-6-methyl-4-(p-tolyl)indolin-5-yl)acetic acid] showed a pIC50 of 6.91.

In the case of `COc1c(F)cccc1C(=O)N1CCc2c1cc(C)c([C@H](OC(C)(C)C)C(=O)O)c2-c1ccc(C)cc1` [Example 27, (S)-2-(tert-Butoxy)-2-(1-(3-fluoro-2-methoxybenzoyl)-6-methyl-4-(p-tolyl)indolin-5-yl)acetic acid], the negative logarithm of the IC50 (pIC50) was 8.15.

On to `Cc1ccc(-c2c3c(cc(C)c2[C@H](OC(C)(C)C)C(=O)O)N(S(=O)(=O)C2CCCCC2)CC3)cc1` [Example 28, (S)-2-(tert-Butoxy)-2-(1-(cyclohexylsulfonyl)-6-methyl-4-(p-tolyl)indolin-5-yl)acetic acid], for which the negative logarithm of the IC50 (pIC50) is 4.94.

The compound `Cc1ccc(-c2c3c(cc(C)c2[C@H](OC(C)(C)C)C(=O)O)N(C(=O)c2cccc(F)c2)CC3)cc1` [Example 29, (S)-2-(tert-Butoxy)-2-(1-(3-fluorobenzoyl)-6-methyl-4-(p-tolyl)indolin-5-yl)acetic acid] gave a negative logarithm of the IC50 (pIC50) of 7.77.

In the case of `Cc1ccc(-c2c3c(cc(C)c2[C@H](OC(C)(C)C)C(=O)O)N(C(=O)c2cccc(F)c2C)CC3)cc1` [Example 30, (S)-2-(tert-Butoxy)-2-(1-(3-fluoro-2-methylbenzov)-6-methyl-4-(p-tolyl)indolin-5-yl)acetic acid], the negative-log IC50 (pIC50) is 8.10.

Take `Cc1ccc(-c2c3c(cc(C)c2[C@H](OC(C)(C)C)C(=O)O)N(C(=O)c2ccc(C)c(F)c2)CC3)cc1` [Example 31, (S)-2-(tert-Butoxy)-2-(1-(3-fluoro-4-methylbenzov)-6-methyl-4-(p-tolyl)indolin-5-yl)acetic acid]: the pIC50 was 7.92.

`Cc1ccc(-c2c3c(cc(C)c2[C@H](OC(C)(C)C)C(=O)O)N(C(=O)c2cc(C)cc(F)c2)CC3)cc1` [Example 32, (S)-2-(tert-Butoxy)-2-(1-(3-fluoro-5-methylbenzov)-6-methyl-4-(p-tolyl)indolin-5-yl)acetic acid] gave a negative-log IC50 (pIC50) of 7.96.

For the compound `Cc1ccc(-c2c3c(cc(C)c2[C@H](OC(C)(C)C)C(=O)O)N(C(=O)c2cc(F)ccc2C)CC3)cc1` [Example 33], the pIC50 is 7.89.

With `Cc1ccc(-c2c3c(cc(C)c2[C@H](OC(C)(C)C)C(=O)O)N(C(=O)Cc2ccc(F)c(F)c2)CC3)cc1` [Example 34, (S)-2-(tert-Butoxy)-2-(1-(2-(3,4-difluorophenyl)acetyl)-6-methyl-4-(p-tolyl)indolin-5-yl)acetic acid], the negative-log IC50 (pIC50) was 7.16.

As to `Cc1ccc(-c2c3c(cc(C)c2[C@H](OC(C)(C)C)C(=O)O)N(S(=O)(=O)c2ccc(F)c(F)c2)CC3)cc1` [Example 35, (S)-2-(tert-Butoxy)-2-(1-((3,4-difluorophenyl)sulfonyl)-6-methyl-4-(p-tolyl)indolin-5-yl)acetic acid], the pIC50 is 5.01.

Turning to `Cc1ccc(-c2c3c(cc(C)c2[C@H](OC(C)(C)C)C(=O)O)N(S(=O)(=O)N2CCCCC2)CC3)cc1` [Example 36, (S)-2-(tert-Butoxy)-2-(6-methyl-1-(piperidin-1-ylsulfonyl)-4-(p-tolyl)indolin-5-yl)acetic acid], the pIC50 is 7.19.

The compound `Cc1ccc(-c2c3c(cc(C)c2[C@H](OC(C)(C)C)C(=O)O)N(C(=O)NC2CCCCC2)CC3)cc1` [Example 37, (S)-2-(tert-Butoxy)-2-(1-(cyclohexylcarbamoyl)-6-methyl-4-(p-tolyl)indolin-5-yl)acetic acid] gave a negative logarithm of the IC50 (pIC50) of 7.10.

On to `Cc1ccc(-c2c3c(cc(C)c2[C@H](OC(C)(C)C)C(=O)O)N(C(=O)c2ccccn2)CC3)cc1` [Example 38, (S)-2-(tert-Butoxy)-2-(6-methyl-1-picolinoyl-4-(p-tolyl)indolin-5-yl)acetic acid], for which the negative-log IC50 (pIC50) is 7.74.

`Cc1ccc(-c2c3c(cc(C)c2[C@H](OC(C)(C)C)C(=O)O)N(C(=O)c2cccnc2)CC3)cc1` [Example 39, (S)-2-(tert-Butoxy)-2-(6-methyl-1-nicotinoyl-4-(p-tolyl)indolin-5-yl)acetic acid] showed a pIC50 of 7.57.

The compound `Cc1ccc(-c2c3c(cc(C)c2[C@H](OC(C)(C)C)C(=O)O)N(C(=O)c2ccncc2)CC3)cc1` [Example 40, (S)-2-(tert-Butoxy)-2-(1-isonicotinoyl-6-methyl-4-(p-tolyl)indolin-5-yl)acetic acid] showed a negative-log IC50 (pIC50) of 6.55.
